# Data taken from patent US20170008841A1, “CRYSTAL FORMS OF ASTAXANTHIN” (DSM IP ASSETS B.V., priority 2008, published 2017).
# Read-outs that look alike come from different tables or passages of the source.
# Legend:
# Type in all cases: physicochemical
# [1] = Solubility measurements of astaxanthin form I and II in different solvents
# Description: The solubilities of astaxanthin form I and II in different solvents were compared. Due to the very low solubility in some solvents (Isopropanol and corn oil), experiments in these two solvents were measured by using an UV-VIS meter. The saturated solutions were prepared at different temperature in a double jacked vessel and 1 ml of the solution was taken out and measured by the UV-VIS meter. To calculate the real concentration in these solvents, the calibration was made firstly by building up the correlation between absorbance unit and solution concentration.
# [2] = Ideal solubility calculated of forms I and II in DCM from melting points and heat of fusion (DSC data)
# Description: The ideal solubility can be estimated by using the equation with measured melting points and heat of fusion form DCS data.
# [3] = Solvent-mediated transformation, slurry conversion experiments (XRPD of resulting crystals)
# Description: Solvent-mediated polymorphic transformation is an efficient technique to study the phase stability of different crystal forms in various solvents. […] As transformation rates in different solvents vary from minutes to years, an appropriate solvent should be chosen to either facilitate or retard the transformation.
# Currently, the choice of a solvent is still done by trial and error, which is time consuming. In accordance with the present invention, the stability test was carried out by the slurry conversion experiments in six different solvents. Form II (and in one case form I) is suspended as the initial form and the resulting crystals were analyzed by XRPD.
# [4] = Stability of forms I and II in solid form / solid formulations (UV retention)
# Description: Two solid formulations of the crystal forms I and II were prepared according to methods mentioned above. The formulations have been analyzed by Raman spectroscopy and—with regard to stability—by UV retention, a commonly used method for stability measurements.
# The samples used in this experiment are: • Sample A: crystal form I prepared with methylene chloride • Sample B: crystal form II prepared with chloroform • For both formulations a matrix-composition consisting of a H2O-phase (Ca-Lignosulfonate & Yellow dextrin) and a Oil-phase (CH2Cl2) have been used. • Sample C: As a control commercial product Carophyll Pink 10%-CWS from DSM Nutritional Products Ltd was used. • In this case the following matrix-composition was used: H2O-phase: Ca-Lignosulfonate & Yellow dextrin; Oil-phase: CH2Cl2, & d,l-a-tocopherol, bees wax.)
smiles,measurement,setting,value
"CC1=C(/C=C/C(C)=C/C=C/C(C)=C/C=C/C=C(C)/C=C/C=C(C)/C=C/C2=C(C)C(=O)[C@@H](O)CC2(C)C)C(C)(C)C[C@H](O)C1=O (relative stereo) [form I, all-trans-astaxanthin]",Solubility,[1],200.0 mg · 100 ml^−1
same,solubility,[1],10 to 20 mg/mL
same,Conc. (ideal solubility calculated),[2],0.00 g/mL
same,Final form after slurry conversion,"[3]; Chloroform, 1 day, 20 ° C.",form II
same,stable in solid form,[4],at least 5 months
same,stable in solid form,[4]; 20° C.-40° C.,at least 90 days
"CC1=C(/C=C/C(C)=C/C=C/C(C)=C/C=C/C=C(C)/C=C/C=C(C)/C=C/C2=C(C)C(=O)[C@@H](O)CC2(C)C)C(C)(C)C[C@H](O)C1=O (relative stereo) [form II, all-trans-astaxanthin]",Solubility,"[1]; Acetone, 20° C.",9.0 mg · 100 ml^−1
same,Solubility,"[1]; DCM, 20° C.",1082.0 mg · 100 ml^−1
same,Conc.,"[1]; DCM, Exp. T 12.00 ° C.",0.02 g/mL
same,Ln X,"[1]; DCM, Exp. T 12.00 ° C.",−6.19
same,Ratio (Conc.) form II to form I,"[1]; DCM, Exp. T 12.00 ° C.",1.68
same,Conc.,"[1]; DCM, Exp. T 21.80 ° C.",0.02 g/mL
same,Ln X,"[1]; DCM, Exp. T 21.80 ° C.",−5.96
same,Ratio (Conc.) form II to form I,"[1]; DCM, Exp. T 21.80 ° C.",1.83
same,Conc.,"[1]; DCM, Exp. T 30.70 ° C.",0.04 g/mL
same,Ln X,"[1]; DCM, Exp. T 30.70 ° C.",−5.52
same,Ratio (Conc.) form II to form I,"[1]; DCM, Exp. T 30.70 ° C.",1.54
same,Solubility,"[1]; EtOAc, 20° C.",10.0 mg · 100 ml^−1
same,Solubility,"[1]; EtOH, 20° C.",11.8 mg · 100 ml^−1
same,Solubility,"[1]; IPA, 20° C.",6.0 mg · 100 ml^−1
same,solubility in Isopropanol,"[1]; Isopropanol, 30° C.",3.4 mg·100 ml^−1
same,solubility in acetone,"[1]; acetone, 20.5° C.",approximately 8 mg·100 ml^−1
same,Conc. (ideal solubility calculated),"[2]; DCM, Cal. T 12.00 ° C.",0.02 g/mL
same,Ratio (Conc.) form II to form I (ideal solubility calculated),"[2]; DCM, Cal. T 12.00 ° C.",3530.79
same,Conc. (ideal solubility calculated),"[2]; DCM, Cal. T 21.80 ° C.",0.04 g/mL
same,Ratio (Conc.) form II to form I (ideal solubility calculated),"[2]; DCM, Cal. T 21.80 ° C.",1927.23
same,Conc. (ideal solubility calculated),"[2]; DCM, Cal. T 30.70 ° C.",0.06 g/mL
same,Ratio (Conc.) form II to form I (ideal solubility calculated),"[2]; DCM, Cal. T 30.70 ° C.",1151.20
same,Conc. (ideal solubility calculated),"[2]; DCM, Cal. T 39.00 ° C.",0.08 g/mL
same,Ratio (Conc.) form II to form I (ideal solubility calculated),"[2]; DCM, Cal. T 39.00 ° C.",731.67
same,Final form after slurry conversion,"[3]; DCM, 1 day, 20 ° C.",form I
same,Final form after slurry conversion,"[3]; EtOAc, 4 days, 40 ° C.",form I
same,stable in solid form,[4]; 20° C.,at least 90 days
